Laboratory results reported in ChEMBL document CHEMBL3885881, “DrugMatrix”.

Organism: Rattus norvegicus
Test: DrugMatrix - Regimen: Daily Repeat
Assay type: toxicity, organism-based, Sprague-Dawley
Design: regimen Daily Repeat, gender Male, age 6-8 weeks
Conditions: in vivo, po, route oral GAVAGE, […]; for ABSOLUTE BASOPHIL / ABSOLUTE EOSINOPHIL / ABSOLUTE LYMPHOCYTE / ABSOLUTE MONOCYTE / ABSOLUTE SEGMENTED NEUTROPHIL / BASOPHIL / EOSINOPHIL / ERYTHROCYTE COUNT / HEMATOCRIT / HEMOGLOBIN / LEUKOCYTE COUNT / LYMPHOCYTE / MEAN CORPUSCULAR HEMOGLOBIN / MEAN CORPUSCULAR HEMOGLOBIN CONCENTRATION / MEAN CORPUSCULAR VOLUME / MONOCYTE / NEUTROPHIL / NUCLEATED RED BLOOD CELLS / PLATELET COUNT: tissue Blood; for ALANINE AMINOTRANSFERASE / ALBUMIN / ALKALINE PHOSPHATASE / ASPARTATE AMINOTRANSFERASE / BLOOD UREA NITROGEN / CARBON DIOXIDE / CHLORIDE / CHOLESTEROL / CREATINE PHOSPHOKINASE / CREATININE / GLUCOSE / LACTATE DEHYDROGENASE / LIPASE / PHOSPHORUS / POTASSIUM / SODIUM / TOTAL BILIRUBIN / TOTAL PROTEIN / URIC ACID: tissue Plasma
[1] = 0 mg/kg, 72 h, dose level Control, time 3 day
[2] = 0 mg/kg, 120 h, dose level Control, time 5 day
[3] = 47 mg/kg, 72 h, dose level Low, time 3 day

CC(=O)Nc1nnc(S(N)(=O)=O)s1 [ACETAZOLAMIDE]
ABSOLUTE BASOPHIL [1]: 0 CELLS/uL
ABSOLUTE EOSINOPHIL [1]: 41.83 CELLS/uL
ABSOLUTE LYMPHOCYTE [1]: 8545.5 CELLS/uL
ABSOLUTE MONOCYTE [1]: 240 CELLS/uL
ABSOLUTE SEGMENTED NEUTROPHIL [1]: 906 CELLS/uL
BASOPHIL [1]: 0%
EOSINOPHIL [1]: 0.33%
ERYTHROCYTE COUNT [1]: 5.6 x10E6/uL
HEMATOCRIT [1]: 35.4%
HEMOGLOBIN [1]: 13.42 G/DL
LEUKOCYTE COUNT [1]: 9.73 x10E3/uL
LYMPHOCYTE [1]: 87.83%
MEAN CORPUSCULAR HEMOGLOBIN [1]: 23.98 pg
MEAN CORPUSCULAR HEMOGLOBIN CONCENTRATION [1]: 37.92 G/DL
MEAN CORPUSCULAR VOLUME [1]: 63.3 fL
MONOCYTE [1]: 2.5%
NEUTROPHIL [1]: 9.33%
NUCLEATED RED BLOOD CELLS [1]: 0 /100WBC
PLATELET COUNT [1]: 1032 x10E3/uL
ALANINE AMINOTRANSFERASE [1]: 72.83 u/L
ALBUMIN [1]: 4 G/DL
ALKALINE PHOSPHATASE [1]: 322.83 u/L
ASPARTATE AMINOTRANSFERASE [1]: 102.67 u/L
BLOOD UREA NITROGEN [1]: 12 mg/dL
CARBON DIOXIDE [1]: 34.33 mmol/L
CHLORIDE [1]: 97.67 MEQ/L
CHOLESTEROL [1]: 82.5 mg/dL
CREATINE PHOSPHOKINASE [1]: 410.33 u/L
CREATININE [1]: 0.18 mg/dL
GLUCOSE [1]: 164.5 mg/dL
LACTATE DEHYDROGENASE [1]: 119.5 u/L
LIPASE [1]: 11.83 u/L
PHOSPHORUS [1]: 9.52 mg/dL
POTASSIUM [1]: 5.56 MEQ/L
SODIUM [1]: 142.48 MEQ/L
TOTAL BILIRUBIN [1]: 0.18 mg/dL
TOTAL PROTEIN [1]: 5.77 G/DL
URIC ACID [1]: 0.48 mg/dL
ABSOLUTE BASOPHIL [2]: 0 CELLS/uL
ABSOLUTE EOSINOPHIL [2]: 0 CELLS/uL
ABSOLUTE LYMPHOCYTE [2]: 9065 CELLS/uL
ABSOLUTE MONOCYTE [2]: 341.33 CELLS/uL
ABSOLUTE SEGMENTED NEUTROPHIL [2]: 527 CELLS/uL
BASOPHIL [2]: 0%
EOSINOPHIL [2]: 0%
ERYTHROCYTE COUNT [2]: 5.25 x10E6/uL
HEMATOCRIT [2]: 34.08%
HEMOGLOBIN [2]: 13.5 G/DL
LEUKOCYTE COUNT [2]: 9.93 x10E3/uL
LYMPHOCYTE [2]: 91.17%
MEAN CORPUSCULAR HEMOGLOBIN [2]: 25.7 pg
MEAN CORPUSCULAR HEMOGLOBIN CONCENTRATION [2]: 39.62 G/DL
MEAN CORPUSCULAR VOLUME [2]: 64.93 fL
MONOCYTE [2]: 3.33%
NEUTROPHIL [2]: 5.5%
NUCLEATED RED BLOOD CELLS [2]: 0 /100WBC
PLATELET COUNT [2]: 1077.5 x10E3/uL
ALANINE AMINOTRANSFERASE [2]: 57.83 u/L
ALBUMIN [2]: 4.07 G/DL
ALKALINE PHOSPHATASE [2]: 319.17 u/L
ASPARTATE AMINOTRANSFERASE [2]: 83.33 u/L
BLOOD UREA NITROGEN [2]: 13.67 mg/dL
CARBON DIOXIDE [2]: 30.83 mmol/L
CHLORIDE [2]: 98.33 MEQ/L
CHOLESTEROL [2]: 64.83 mg/dL
CREATINE PHOSPHOKINASE [2]: 263.67 u/L
CREATININE [2]: 0.2 mg/dL
GLUCOSE [2]: 182.83 mg/dL
LACTATE DEHYDROGENASE [2]: 124 u/L
LIPASE [2]: 10.5 u/L
PHOSPHORUS [2]: 10 mg/dL
POTASSIUM [2]: 5.78 MEQ/L
SODIUM [2]: 142.48 MEQ/L
TOTAL BILIRUBIN [2]: 0.2 mg/dL
TOTAL PROTEIN [2]: 6 G/DL
URIC ACID [2]: 0.7 mg/dL
ABSOLUTE BASOPHIL [3]: 0 CELLS/uL
ABSOLUTE EOSINOPHIL [3]: 0 CELLS/uL
ABSOLUTE LYMPHOCYTE [3]: 9847 CELLS/uL
ABSOLUTE MONOCYTE [3]: 251.33 CELLS/uL
ABSOLUTE SEGMENTED NEUTROPHIL [3]: 935 CELLS/uL
BASOPHIL [3]: 0%
EOSINOPHIL [3]: 0%
ERYTHROCYTE COUNT [3]: 5.11 x10E6/uL
HEMATOCRIT [3]: 32.2%
HEMOGLOBIN [3]: 12.47 G/DL
LEUKOCYTE COUNT [3]: 11.03 x10E3/uL
LYMPHOCYTE [3]: 88.67%
MEAN CORPUSCULAR HEMOGLOBIN [3]: 24.43 pg
MEAN CORPUSCULAR HEMOGLOBIN CONCENTRATION [3]: 38.77 G/DL
MEAN CORPUSCULAR VOLUME [3]: 63 fL
MONOCYTE [3]: 2.33%
NEUTROPHIL [3]: 9%
NUCLEATED RED BLOOD CELLS [3]: 0 /100WBC
PLATELET COUNT [3]: 1122.33 x10E3/uL
ALANINE AMINOTRANSFERASE [3]: 67 u/L
ALBUMIN [3]: 3.77 G/DL
ALKALINE PHOSPHATASE [3]: 486.33 u/L
ASPARTATE AMINOTRANSFERASE [3]: 91.33 u/L
BLOOD UREA NITROGEN [3]: 11.33 mg/dL
CARBON DIOXIDE [3]: 31 mmol/L
CHLORIDE [3]: 99 MEQ/L
CHOLESTEROL [3]: 74 mg/dL
CREATINE PHOSPHOKINASE [3]: 250 u/L
CREATININE [3]: 0.31 mg/dL
GLUCOSE [3]: 173 mg/dL
LACTATE DEHYDROGENASE [3]: 140.67 u/L
LIPASE [3]: 13.33 u/L
PHOSPHORUS [3]: 10.33 mg/dL
POTASSIUM [3]: 5.3 MEQ/L
SODIUM [3]: 144.37 MEQ/L
TOTAL BILIRUBIN [3]: 0.23 mg/dL
TOTAL PROTEIN [3]: 5.5 G/DL
URIC ACID [3]: 0.67 mg/dL
